“And” between values parts separate entries of the source, which are not always exact repeats. Equal entries are not always repeated.
How the values were obtained:
[1] = tested on: Monocotyledonous and dicotyledonous test plants; assay: Post-emergence herbicidal action; assay type: in vivo; conditions: evaluated after approximately 18 days; for Post-emergence action, Ipomoea / Post-emergence action, Lolium / Post-emergence action, Setaria / Post-emergence action, Sinapis / Post-emergence action, Solanum / Post-emergence action, Stellaria: 2000 g/ha, sprayed in 4- to 6-leaf stage, nine-step scale
How it was run: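 Scoring uses a 1–9 scale (1 complete damage, 9 no effect), read roughly 18 days post-application. Compounds were applied post-emergence at 4–6 leaves, as aqueous suspension (25% wettable powder) or emulsion (25% emulsion concentrate), at 250 g or 2 kg a.i./ha in 500 l water/ha.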

[2] = tested on: Monocotyledonous and dicotyledonous test plants; assay: Herbicidal action before emergence of the plants (pre-emergence action); assay type: in vivo; conditions: evaluated after 3 weeks, nine-step scale; for pre-emergence action, Cyperus / pre-emergence action, Ipomoea / pre-emergence action, Setaria / pre-emergence action, Sinapis / pre-emergence action, Solanum / pre-emergence action, Stellaria: 2000 g/ha
How it was run: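 Sprayed onto soil immediately after sowing as WP suspension or EC emulsion at 2 kg or 250 g a.i./ha (500 l water/ha). Greenhouse growth for 3 weeks, then scored on a nine-step scale (1 = complete damage, 9 = no effect).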

Row | Compound | Post-emergence action, Ipomoea [1] | Post-emergence action, Lolium [1] | Post-emergence action, Setaria [1] | Post-emergence action, Sinapis [1] | Post-emergence action, Solanum [1] | Post-emergence action, Stellaria [1] | pre-emergence action, Cyperus [2] | pre-emergence action, Ipomoea [2] | pre-emergence action, Setaria [2] | pre-emergence action, Sinapis [2] | pre-emergence action, Solanum [2] | pre-emergence action, Stellaria [2] | further results
1 | COCc1nc(C(F)(F)F)ccc1C(=O)C1=C(O)C(C)(C)CCC1=O [Compound A8-B24] | 2 | 2 | 2 | 1 | 2 | 2 | 1 | 2 | 2 | 2 | 1 | 3 | 
2 | Cc1c(C(=O)C2=C(O)C(C)(C)C(=O)C(C)(C)C2=O)ccc(C(F)(F)F)[n+]1[O-] [Compound A1210-B354] | 2 | 2 | 2 | 1 | 1 | 2 | 2 | 3 | 2 | 1 | 1 | 2 | 
3 | COCCc1nc(C(F)(F)F)ccc1C(=O)C1=C(O)CCCC1=O [Compound A9-B1] | 2 | 4 | 2 | 2 | 2 | 2 | 2 | 1 | 2 | 1 | 1 | 2 | 
4 | Cc1cc(C(=O)C2=C(O)CCCC2=O)c(C)nc1C(F)(F)F [Compound A184-B1] | 1 | 3 | 2 | 1 | 2 | 2 | 2 | 4 | 2 | 2 | 1 | 2 | 
5 | Cc1nc(C(F)(F)F)ccc1C(=O)C1=C(O)C(C)(C(C)C)CC(C)(C)C1=O (stereo not drawn) [Compound A2-B93] | 1 | 2 | 2 | 1 | 2 | 2 | 2 | 4 | 2 | 2 | 1 | 2 | 
6 | Cc1nc(C(F)(F)F)ccc1C(=O)C1=C(O)C(C)(S(C)(=O)=O)CC(C)C1=O (stereo not drawn) [Compound A2-B75] | 2 | 2 | 3 | 1 | 2 | 2 | 2 | 3 | 2 | 2 | 1 | 2 | 
7 | CCc1nc(C(F)(F)F)ccc1C(=O)C1=C(O)CCCC1=O [Compound A3-B1] | 1 | 3 | 2 | 1 | 1 | 2 | 2 | 2 | 4 | 2 | 3 | 2 | 
8 | Cc1nc(C(F)(F)F)ccc1C(=O)C1=C(O)CC(C(C)C)CC1=O (stereo not drawn) [Compound A2-B1061] | 2 | 2 | 2 | 1 | 2 | 2 | 3 | 3 | 2 | 2 | 1 | 2 | 
9 | Cc1nc(C(F)(F)F)ccc1C(=O)C1=C(O)C(C)C(C)CC1=O (stereo not drawn) [Compound A2-B134] | 2 | 2 | 1 | 1 | 1 | 2 | 1 | 2 | 1 | 2 | 1 | 1 | 
10 | Cc1nc(C(F)(F)F)ccc1C(=O)C1=C(O)C(C)CC2(CC2)C1=O (stereo not drawn) [Compound A2-C2] | 2 | 1 | 1 | 1 | 1 | 1 | 2 | 3 | 1 | 1 | 1 | 1 | 
11 | Cc1cc(C(=O)C2=C(O)C(C)(C)CCC2=O)c(C)nc1C(F)(F)F [Compound A184-B24] | 1 | 2 | 2 | 1 | 2 | 2 | 1 | 3 | 2 | 2 | 1 | 2 | 
12 | CSC1(C)CC(C)(C)C(=O)C(C(=O)c2ccc(C(F)(F)F)nc2C)=C1O (stereo not drawn) [Compound A2-B95] | 1 | 2 | 2 | 1 | 2 | 2 | 2 | 4 | 2 | 2 | 1 | 2 | 
13 | COCc1nc(C(F)(F)F)ccc1C(=O)C1=C(O)C(C)(C)C(C)CC1=O (stereo not drawn) [Compound A8-B156] |  |  |  |  |  |  |  |  |  |  |  |  | Post-emergence action: Abutilon (score, nine-step scale) ([1]; Abutilon, 250 g/ha, sprayed at 4- to 6-leaf stage): 1; Post-emergence action: Chenop. (score, nine-step scale) ([1]; Chenop., 250 g/ha, sprayed at 4- to 6-leaf stage): 1; Post-emergence action: Digitaria (score, nine-step scale) ([1]; Digitaria, 250 g/ha, sprayed at 4- to 6-leaf stage): 3; Post-emergence action: Echino. (score, nine-step scale) ([1]; Echino., 250 g/ha, sprayed at 4- to 6-leaf stage): 3; Post-emergence action: Ipopur. (score, nine-step scale) ([1]; Ipopur., 250 g/ha, sprayed at 4- to 6-leaf stage): 2; Post-emergence action: Panicum (score, nine-step scale) ([1]; Panicum, 250 g/ha, sprayed at 4- to 6-leaf stage): 2; Post-emergence action: Xanth. (score, nine-step scale) ([1]; Xanth., 250 g/ha, sprayed at 4- to 6-leaf stage): 2; Pre-emergence action, Abutilon ([2]; Abutilon, 250 g/ha): 3; Pre-emergence action, Amaranthus ([2]; Amaranthus, 250 g/ha): 4; Pre-emergence action, Chenop. ([2]; Chenop., 250 g/ha): 2; Pre-emergence action, Digitaria ([2]; Digitaria, 250 g/ha): 3; Pre-emergence action, Echino. ([2]; Echino., 250 g/ha): 3; Pre-emergence action, Panicum ([2]; Panicum, 250 g/ha): 3
14 | Cc1nc(C(F)(F)F)ccc1C(=O)C1=C(O)CC2CCCC2C1=O (stereo not drawn) [Compound A2-D36] | 2 | 2 and 1 | 2 and 1 | 1 | 2 and 1 | 2 and 1 | 1 | 2 | 2 and 1 | 2 |  | 1 | 
15 | COC1(C)CCC(=O)C(C(=O)c2ccc(C(F)(F)F)nc2C)=C1O (stereo not drawn) [Compound A2-B33] | 2 | 4 | 2 | 1 | 2 | 2 | 1 | 3 | 2 | 2 | 1 | 3 | 

Source: patent publication US6673938B1, “Substituted pyridine herbicides” (Syngenta Participations AG, priority 1998, dated 2004)
